For assay [1], the system named is cultured cortical neurons. Put plainly: Epileptiform burst activity in cultured cortical neurons (whole-cell patch-clamp). It counts as cell-based, mouse. The protocol: Mouse cortical neurons were prepared from newborn C57BL/6 mice as previously described. Qi et al., “Cyclothiazide induces robust epileptiform activity in rat hippocampal neurons both in vitro and in vivo” The Journal Of Physiology 571:605-618 (2006). Briefly, the newborn mouse cerebral cortices were dissected out in ice-cold HEPES-buffered saline solution, washed and digested with 0.05% trypsin-EDTA at 37° C. for 20 min. After deactivation of trypsin with serum-containing medium, cells were centrifuged, resuspended, and seeded on a monolayer of cortical astrocytes at a density of 10,000 cells/cm^2 in 24-well plates. The neuronal culture medium contained MEM (500 ml, Invitrogen), 5% fetal bovine serum (Atlanta Biologicals), 10 ml B-27 supplement (Invitrogen), 100 mg NaHCO3, 2 mM Glutamax (Invitrogen), and 25 units/ml penicillin & streptomycin. AraC (4 μM, Sigma) was added to inhibit the excessive proliferation of astrocytes. Cell cultures were maintained in a 5% CO2-humidified incubator at 37° C. for 14-21 days.
The cultured neurons were placed in the recording chamber with continuous perfusion of the bath solution consisting of (mM): 128 NaCl, 10 Glucose, 25 HEPES, 5 KCl, 2 CaCl2, 1 MgSO4, pH 7.3 adjusted with NaOH, and osmolarity ˜300 mOsm. For recording spontaneous firing under current clamp mode, pipettes were filled with an internal solution containing (in mM): 125 K-gluconate, 5 Na-phosphocreatine, 5 EGTA, 10 KCl, 10 HEPES, 4 Mg-ATP, 0.3 Na-GTP, 280-290 mOsm, pH 7.3 adjusted with KOH. Epileptiform activity in cultured neurons was induced either by 10 μM CTZ for 24 h, or 1 μM KA for 2 h, or 50 μM 4-AP for 2 h. The burst activity was defined as previously described. Qi et al., “Cyclothiazide induces robust epileptiform activity in rat hippocampal neurons both in vitro and in vivo” The Journal Of Physiology 571:605-618 (2006). In brief, at least five consecutive action potentials overlaying on top of the large depolarization shift (≥10 mV depolarization and ≥300 ms in duration).
(The patch-clamp technique gives a direct electrical read-out from membranes.)

In assay [2] the target is T1, CLC-3 channels (Rattus norvegicus, UniProt P51792).
T1 construct: host or cells: HEK293T
T1 sequence (P51792 1-760 isoform P51792-2): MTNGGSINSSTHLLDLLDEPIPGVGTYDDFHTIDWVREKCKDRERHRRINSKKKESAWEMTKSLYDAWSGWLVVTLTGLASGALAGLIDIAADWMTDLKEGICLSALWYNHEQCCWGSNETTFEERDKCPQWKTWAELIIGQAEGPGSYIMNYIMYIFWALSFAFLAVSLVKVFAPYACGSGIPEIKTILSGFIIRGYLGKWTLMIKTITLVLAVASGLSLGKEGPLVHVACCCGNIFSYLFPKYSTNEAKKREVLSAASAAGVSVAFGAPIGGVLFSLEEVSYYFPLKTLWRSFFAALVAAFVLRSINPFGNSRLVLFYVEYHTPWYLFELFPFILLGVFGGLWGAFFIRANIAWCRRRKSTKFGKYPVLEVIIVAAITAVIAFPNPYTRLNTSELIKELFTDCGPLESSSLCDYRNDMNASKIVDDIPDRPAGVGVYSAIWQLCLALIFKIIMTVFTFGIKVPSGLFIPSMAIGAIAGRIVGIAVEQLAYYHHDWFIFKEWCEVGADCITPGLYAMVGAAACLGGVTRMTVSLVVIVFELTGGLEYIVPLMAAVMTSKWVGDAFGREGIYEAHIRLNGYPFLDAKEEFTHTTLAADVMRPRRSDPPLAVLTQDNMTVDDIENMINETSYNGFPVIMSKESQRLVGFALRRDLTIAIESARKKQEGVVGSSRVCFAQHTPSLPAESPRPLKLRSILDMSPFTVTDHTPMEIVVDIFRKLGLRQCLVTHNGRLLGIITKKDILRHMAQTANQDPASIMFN
Put plainly: Whole-cell Cl− currents in CLC-3-transfected HEK293T cells. Type of assay: cell-based.

The subject of assay [3] is sodium, potassium or calcium channels. Put plainly: Na+, K+ and Ca2+ currents in cultured cortical neurons. As to conditions: 10 mM NaGcA; sodium salt. Type of assay: cell-based, mouse. The source says: Experiments were designed to answer the question as to what is/are the molecular target(s) of gluconate. Ion channel regulation was first investigated where a comparison of NaGcA on sodium, potassium or calcium channels was made. […] See, FIGS. 2A-2F. Although it is not necessary to understand the mechanism of an invention, it is believed that since gluconic acid is an organic anion, it might affect neuronal anion channels.

The subject of assay [4] is Cl− channels. The assay can be described thus: Cl− current recording in cultured cortical neurons. Type of assay: cell-based, mouse. As to conditions: 10 mM NaGcA.

Molecules are shown by their SMILES. “Also recorded” adds a separate entry of the source.

On to `O=C([O-])[C@H](O)[C@@H](O)[C@H](O)[C@H](O)CO.[Na+]` [NaGcA, D-gluconic acid sodium salt], for which, in assay [1] (1 μM KA for 2 hrs, 10 mM NaGcA, sodium salt), the “KA-induced epileptiform burst activity” value is listed as “greatly suppressed; also recorded: dramatically suppressed”. Moreover, the “neurons showing epileptiform activity after CTZ co-treatment” value in assay [1] (10 μM CTZ together with 10 mM NaGcA, 3 out of 17 neurons) was found to be 18%. In assay [1] (50 μM 4-AP for 2 hrs, 10 mM NaGcA, sodium salt), the 4-AP-induced epileptiform activity result is on record as “completely blocked; also recorded: obviously suppressed”. Moreover, in assay [1] (10 mM NaGcA, acute application), the “CTZ-induced epileptiform burst activity” value is reported as “completely blocked”. Besides, the “spontaneous epileptiform activity (burst action potentials)” value in assay [1] (5-20 mM NaGcA in bath solution (FIG. 1A: 20 mM), sodium salt) is listed as “inhibited spontaneous epileptiform activity; also recorded: stopped immediately”. For the same molecule, the “induction of epileptiform activity by CTZ” value in assay [1] (co-application of 10 μM CTZ and 10 mM NaGcA during induction, sodium salt) was “great reduction; also recorded: lack of burst activity”. In addition, the “average frequency and duration of epileptiform bursts” value in assay [1] (neurons co-treated with CTZ and NaGcA (5 and 10 mM)) was “significantly reduced”. In addition, the “CLC-3-mediated Cl− currents” value in assay [2] (20 mM NaGcA, at +90 mV) stood at 544±59 pA. Also, in assay [2] (20 mM NaGcA, sodium salt), the “CLC-3 channel-mediated Cl− currents (inhibition)” value is recorded as “significantly inhibited; also recorded: significantly reduced”. Moreover, the “CLC-3-mediated Cl− currents after washout of NaGcA” value in assay [2] (after washout, at +90 mV) turned out to be 925±124 pA. The “Na+, K+ and Ca2+ currents” value in assay [3] is reported as “no significant changes; also recorded: no effect”. For the same molecule, the “Cl− currents” value in assay [4] (recorded at +90 mV) came out at 499±89 pA. Also, in assay [4] (sodium salt), the “Cl− currents (inhibition)” value is “significantly decreased; also recorded: significant NaGcA inhibition”.

Values taken from patent publication US11666640B2, “Glucose oxidase compositions as a neonate anticonvulsant” (PENN STATE RESEARCH FOUNDATION, priority 2018, dated 2023).
